Assay results published in patent US11535597B2, “Photoreactive ligands and uses thereof” (The Scripps Research Institute, priority 2017, dated 2022).

Target: T1, ZADH2 (Homo sapiens, UniProt Q8N4Q0)
T1 construct: endogenous in cells; host or cells: HEK293T
T1 sequence (Q8N4Q0 1-377): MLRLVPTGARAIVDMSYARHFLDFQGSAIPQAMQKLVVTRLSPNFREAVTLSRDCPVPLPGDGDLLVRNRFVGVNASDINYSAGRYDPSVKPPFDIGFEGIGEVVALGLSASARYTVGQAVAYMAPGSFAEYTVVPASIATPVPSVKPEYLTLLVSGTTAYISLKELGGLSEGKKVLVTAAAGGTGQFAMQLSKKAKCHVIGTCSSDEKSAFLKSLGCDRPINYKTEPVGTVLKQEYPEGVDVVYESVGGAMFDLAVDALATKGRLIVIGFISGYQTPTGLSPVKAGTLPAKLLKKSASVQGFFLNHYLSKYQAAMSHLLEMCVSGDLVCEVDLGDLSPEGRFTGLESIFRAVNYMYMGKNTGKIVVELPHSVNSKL
Experiment: MS-based (SILAC) competition of FFF probe 8 labeling of ZADH2 in HEK293T cells
Type: binding
Details: competition with FFF probe 8 (20 μM)
Procedure: For gel-based experiments, cells were grown in 6-well plates to ˜90% confluence at the time of treatment. Cells were carefully washed with Dulbecco's phosphate buffered saline (DPBS) and replenished with fresh serum-free media containing indicated FFF probe, and, if applicable, competitors or DMSO vehicle (1 mL). Following incubation at 37° C. for 30 min, cells were directly exposed to 365 nm light for 10 min. For no UV experiments, cells were incubated at 4° C. for 10 min under ambient light. For MS-based experiments, cell labeling was performed in a similar manner as described above. Modifications to this protocol included using isotopically ‘light’ and ‘heavy’ SILAC cells that were grown to near complete confluence prior to treatment in 10 cm plates. In probe-versus-control probe and probe-versus-probe experiments, isotopically light cells were treated with indicated fragment probe, while the heavy cells were treated with control probe (1), or additional FFF probe to be compared, at indicated concentrations. […]
Cells pellets were lysed in cold DPBS (100-500 µL) using a Branson Sonifier probe sonicator (10 pulses, 30% duty cycle, output setting=4). […] Protein concentration was determined using the DC Protein Assay (Bio-Rad) and absorbance read using a Tecan, Infinite F500 plate reader following manufacturer's instructions. […]

COc1ccccc1N1CCN(C(=O)Cc2ccccc2)CC1 [Compound 22, 1-(4-(2-Methoxyphenyl)piperazin-1-yl)-2-phenylethan-1-one]
cross-reactivity with ZADH2: did not cross-react
